Assay results taken from patent US9108957B2 (MITSUBISHI TANABE PHARMA CORPORATION, priority 2009, dated 2015).

Target: human recombinant TPK1 (Homo sapiens, UniProt P49841)
Assay: Inhibitory activity against P-GS1 phosphorylation by TPK1 (Kinase Glo luminescence)
Type: biochemical
Conditions: 7.5 μM P-GS1, 10 μM ATP, 25° C. for 16 hours, Kinase Glo Reagent luminescent signal
Experimental: Inhibitory Activity of the Medicament of the Present Invention Against P-GS1 Phosphorylation by Bovine Cerebral TPK1
A mixture containing 100 mM HEPES-sodium hydroxide (pH 7.2), 1 mM magnesium acetate, 1 mM EGTA, 1 mM dithiothreitol (DTT), 0.02% Tween 20, 7.5 μM P-GS1, 10 μM ATP, human recombinant TPK1 and a compound shown in Table (a final mixture contained 1% DMSO deriving from a solution of a test compound prepared in the presence of 10% DMSO) was used as a reaction system. The phosphorylation was started by adding ATP, and the reaction was conducted at 25° C. for 16 hours. Then equal volume of Kinase Glo Reagent (Promega) was added to the mixture and luminescent signal from the mixture was measured. IC50 for each compound was calculated by setting the data of mixture without enzyme as 0% activity and that without compound as 100% activity.

Chain of human recombinant TPK1 (P49841 whole entry): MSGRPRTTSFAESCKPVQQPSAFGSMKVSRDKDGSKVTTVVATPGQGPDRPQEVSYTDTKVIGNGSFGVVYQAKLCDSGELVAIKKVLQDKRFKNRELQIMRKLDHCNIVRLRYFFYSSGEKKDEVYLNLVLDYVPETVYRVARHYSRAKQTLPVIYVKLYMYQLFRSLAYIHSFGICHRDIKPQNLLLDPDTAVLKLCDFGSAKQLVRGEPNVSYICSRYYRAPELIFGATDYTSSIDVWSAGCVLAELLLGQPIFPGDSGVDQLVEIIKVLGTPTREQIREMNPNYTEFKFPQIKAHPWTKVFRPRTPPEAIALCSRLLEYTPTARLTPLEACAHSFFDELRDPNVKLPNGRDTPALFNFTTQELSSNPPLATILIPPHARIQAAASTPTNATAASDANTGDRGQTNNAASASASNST

| Structure (SMILES) | IC50 |
| --- | --- |
| Cn1c(N2CCOC(c3ccc(Br)cc3)CC2)nc(-c2ccncc2F)cc1=O (single isomer, unassigned; (+)) [Compound A114, (+)-2-(7-(4-bromophenyl)-1,4-oxazepan-4-yl)-6-(3-fluoropyridin-4-yl)-3-methylpyrimidin-4(3H)-one] | 34.7 nM |
| Cn1c(N2CCOC(c3ccc(-c4ncon4)cc3)CC2)nc(-c2ccncc2F)cc1=O (single isomer, unassigned; (-)) [Compound A104, (−)-2-[7-[4-(1,2,4-oxadiazol-3-yl)-phenyl]-1,4-oxazepan-4-yl]-6-(3-fluoropyridin-4-yl)-3-methylpyrimidin-4(3H)-one] | 17.2 nM |
| Cn1c(N2CCCO[C@@H](c3ccc(C(N)=O)cc3)C2)nc(-c2ccncc2)cc1=O [Compound A017, (S)-2-[2-(4-aminocarbonylphenyl)-1,4-oxazepan-4-yl]-3-methyl-6-(pyridin-4-yl)pyrimidin-4(3H)-one] | 11 nM |
| Cn1c(N2CCCO[C@@H](c3ccc(Br)cc3)C2)nc(-c2ccncn2)cc1=O [Compound A009, (S)-2-[2-(4-bromophenyl)-1,4-oxazepan-4-yl]-3-methyl-6-(pyrimidin-4-yl)pyrimidin-4(3H)-one] | 5.2 nM |
| Cn1c(N2CCCOCC2)nc(-c2ccncc2F)cc1=O [Compound A001, 6-(3-fluoropyridin-4-yl)-3-methyl-2-(1,4-oxazepan-4-yl)pyrimidin-4(3H)-one] | 27.4 nM |
| Cn1c(N2CCCO[C@H](c3cccc(Br)c3)C2)nc(-c2ccncn2)cc1=O [Compound A043, (R)-2-[2-(3-bromophenyl)-1,4-oxazepan-4-yl]-3-methyl-6-(pyrimidin-4-yl)pyrimidin-4(3H)-one] | 51 nM |
| Cn1c(N2CCCOC(c3ccccc3)C2)nc(-c2ccncn2)cc1=O (stereo not drawn) [Compound A026, 2-(2-phenyl-1,4-oxazepan-4-yl)-3-methyl-6-(pyrimidin-4-yl)pyrimidin-4(3H)-one] | 14.6 nM |
| Cc1nc(-c2ccc(C3CCN(c4nc(-c5ccncc5F)cc(=O)n4C)CCO3)cc2)no1 (single isomer, unassigned; (-)) [Compound A097, (−)-2-[7-[4-(5-methyl-1,2,4-oxadiazol-3-yl)-phenyl]-1,4-oxazepan-4-yl]-6-(3-fluoropyridin-4-yl)-3-methylpyrimidin-4(3H)-one] | 11.3 nM |
| Cn1c(N2CCOC(c3ccc(Br)cc3)CC2)nc(-c2ccncc2F)cc1=O (single isomer, unassigned; (-)) [Compound A120, (−)-2-(7-(4-bromophenyl)-1,4-oxazepan-4-yl)-6-(3-fluoropyridin-4-yl)-3-methylpyrimidin-4(3H)-one] | 82.8 nM |
| Cn1c(N2CCOC(c3ccc(-c4ncon4)cc3)CC2)nc(-c2ccncn2)cc1=O (single isomer, unassigned; (-)) [Compound A111, (−)-2-[7-[4-(1,2,4-oxadiazol-3-yl)-phenyl]-1,4-oxazepan-4-yl]-3-methyl-6-(pyrimidin-4-yl)pyrimidin-4(3H)-one] | 29.5 nM |
| Cn1c(N2CCCN(c3ccc(F)cc3)CC2)nc(-c2ccncn2)cc1=O [Compound A004, 2-[4-(4-fluorophenyl)-1,4-diazepan-1-yl]-3-methyl-6-(pyrimidin-4-yl)pyrimidin-4(3H)-one] | 35.1 nM |
| COc1cccc(C2CCN(c3nc(-c4ccncn4)cc(=O)n3C)CCO2)c1 (stereo not drawn) [Compound A101, 2-[7-(3-methoxyphenyl)-1,4-oxazepan-4-yl]-3-methyl-6-(pyrimidin-4-yl)pyrimidin-4(3H)-one] | 15.3 nM |
| COc1ccccc1C1CCN(c2nc(-c3ccncn3)cc(=O)n2C)CCO1 (stereo not drawn) [Compound A102, 2-[7-(2-methoxyphenyl)-1,4-oxazepan-4-yl]-3-methyl-6-(pyrimidin-4-yl)pyrimidin-4(3H)-one] | 16.3 nM |
| Cc1nc(-c2ccc(C3CCN(c4nc(-c5ccncc5F)cc(=O)n4C)CCO3)cc2)no1 (single isomer, unassigned; (+)) [Compound A091, (+)-2-[7-[4-(5-methyl-1,2,4-oxadiazol-3-yl)-phenyl]-1,4-oxazepan-4-yl]-6-(3-fluoropyridin-4-yl)-3-methylpyrimidin-4(3H)-one] | 6.8 nM |
| Cn1c(N2CCCO[C@@H](c3cccc(C(N)=O)c3)C2)nc(-c2ccncc2)cc1=O [Compound A033, (S)-2-[2-(3-aminocarbonylphenyl)-1,4-oxazepan-4-yl]-3-methyl-6-(pyridin-4-yl)pyrimidin-4(3H)-one] | 23.4 nM |
| Cc1noc(-c2ccc([C@H]3CN(c4nc(-c5ccncn5)cc(=O)n4C)CCCO3)cc2)n1 [Compound A031, (S)-2-[2-[4-(3-methyl-1,2,4-oxadiazol-5-yl)-phenyl]-1,4-oxazepan-4-yl]-3-methyl-6-(pyrimidin-4-yl)pyrimidin-4(3H)-one] | 20.2 nM |
| Cc1nc(-c2ccc(C3COCCN(c4nc(-c5ccncc5F)cc(=O)n4C)C3)cc2)no1 (stereo not drawn) [Compound A083, 2-[6-[4-(5-methyl-1,2,4-oxadiazol-3-yl)-phenyl]-1,4-oxazepan-4-yl]-6-(3 fluoropyridin-4-yl)-3-methylpyrimidin-4(3H)-one] | 14 nM |

| Structure (SMILES) | IC50 |
| --- | --- |
| CC1CCOCCN1c1nc(-c2ccncc2F)cc(=O)n1C (stereo not drawn) [Compound A067, 6-(3-fluoropyridin-4-yl)-3-methyl-2-(5-methyl-1,4-oxazepan-4-yl)pyrimidin-4(3H)-one] | 9.7 nM |
| Cn1c(N2CCOC(c3ccc(-c4ncon4)cc3)CC2)nc(-c2ccncn2)cc1=O (single isomer, unassigned; (+)) [Compound A099, (+)-2-[7-[4-(1,2,4-oxadiazol-3-yl)-phenyl]-1,4-oxazepan-4-yl]-3-methyl-6-(pyrimidin-4-yl)pyrimidin-4(3H)-one] | 14.7 nM |
| Cn1c(N2CCCO[C@H](c3cccc(C(N)=O)c3)C2)nc(-c2ccncn2)cc1=O [Compound A049, (R)-2-[2-(3-aminocarbonylphenyl)-1,4-oxazepan-4-yl]-3-methyl-6-(pyrimidin-4-yl)pyrimidin-4(3H)-one] | 70.6 nM |
| Cc1nc(-c2ccc(C3COCCN(c4nc(-c5ccncn5)cc(=O)n4C)C3)cc2)no1 (stereo not drawn) [Compound A086, 2-[6-[4-(5-methyl-1,2,4-oxadiazol-3-yl)-phenyl]-1,4-oxazepan-4-yl]-3-methyl-6-(pyrimidin-4-yl)pyrimidin-4(3H)-one] | 35.8 nM |
| COc1ccc(C2CCN(c3nc(-c4ccncc4)cc(=O)n3C)CCO2)cc1 (stereo not drawn) [Compound A118, 2-(7-(4-methoxyphenyl)-1,4-oxazepan-4-yl)-3-methyl-6-(pyridin-4-yl)pyrimidin-4(3H)-one] | 58.6 nM |
| Cc1nc(-c2ccc(C3CN(c4nc(-c5ccncn5)cc(=O)n4C)CCCO3)cc2)no1 (stereo in doubt) [Compound A034, (R)-2-[2-[4-(5-methyl-1,2,4-oxadiazol-3-yl)-phenyl]-1,4-oxazepan-4-yl]-3-methyl-6-(pyrimidin-4-yl)pyrimidin-4(3H)-one] | 23.5 nM |
| Cn1c(N2CCOC(c3ccccc3F)CC2)nc(-c2ccncn2)cc1=O (stereo not drawn) [Compound A105, 2-[7-(2-fluorophenyl)-1,4-oxazepan-4-yl]-3-methyl-6-(pyrimidin-4-yl)pyrimidin-4(3H)-one] | 18.7 nM |
| COc1cccc(C2CCN(c3nc(-c4ccncc4F)cc(=O)n3C)CCO2)c1 (stereo not drawn) [Compound A093, 2-[7-(3-methoxyphenyl)-1,4-oxazepan-4-yl]-6-(3-fluoropyridin-4-yl)-3-methylpyrimidin-4(3H)-one] | 9.65 nM |
| Cn1c(N2CCOCCC2c2ccccc2)nc(-c2ccncc2F)cc1=O (stereo not drawn) [Compound A066, 6-(3-fluoropyridin-4-yl)-3-methyl-2-(5-phenyl-1,4-oxazepan-4-yl)pyrimidin-4(3H)-one] | 5.5 nM |
| Cc1noc(-c2ccc([C@H]3CN(c4nc(-c5ccncc5)cc(=O)n4C)CCCO3)cc2)n1 [Compound A036, (S)-2-[2-[4-(3-methyl-1,2,4-oxadiazol-5-yl)-phenyl]-1,4-oxazepan-4-yl]-3-methyl-6-(pyridin-4-yl)pyrimidin-4(3H)-one] | 28.7 nM |
| Cn1c(N2CCOC(c3ccc(-c4ncno4)cc3)CC2)nc(-c2ccncn2)cc1=O (single isomer, unassigned; (+)) [Compound A107, (+)-2-[7-[4-(1,2,4-oxadiazol-5-yl)-phenyl]-1,4-oxazepan-4-yl]-3-methyl-6-(pyrimidin-4-yl)pyrimidin-4(3H)-one] | 23 nM |
| Cn1c(N2CCCO[C@@H](c3ccc(Br)cc3)C2)nc(-c2ccncc2)cc1=O [Compound A021, (S)-2-[2-(4-bromophenyl)-1,4-oxazepan-4-yl]-3-methyl-6-(pyridin-4-yl)pyrimidin-4(3H)-one] | 12 nM |
| Cn1c(N2CCCOCC2c2ccccc2)nc(-c2ccncn2)cc1=O (stereo in doubt) [Compound A065, (S)-3-methyl-2-(3-phenyl-1,4-oxazepan-4-yl)-6-(pyrimidin-4-yl)pyrimidin-4(3H)-one] | 97.5 nM |
| CC1COCCN(c2nc(-c3ccncc3)cc(=O)n2C)C1 (stereo not drawn) [Compound A088, 2-(6-methyl-1,4-oxazepan-4-yl)-3-methyl-6-(pyridin-4-yl)pyrimidin-4(3H)-one] | 176 nM |
| CC1CN(c2nc(-c3ccncc3)cc(=O)n2C)CCCO1 (stereo not drawn) [Compound A061, 2-(2-methyl-1,4-oxazepan-4-yl)-3-methyl-6-(pyridin-4-yl)pyrimidin-4(3H)-one] | 446 nM |
| Cc1noc(-c2ccc(C3CCN(c4nc(-c5ccncn5)cc(=O)n4C)CCO3)cc2)n1 (single isomer, unassigned; (+)) [Compound A103, (+)-2-[7-[4-(3-methyl-1,2,4-oxadiazol-5-yl)-phenyl]-1,4-oxazepan-4-yl]-3-methyl-6-(pyrimidin-4-yl)pyrimidin-4(3H)-one] | 16.3 nM |
